Assays:
Assay in all cases: relative viability (nuclei count vs DMSO), 5 days (fraction); higher = more cells survive
[1] = compound: CC1=C(C(=NN1)C)CC2=C(C3=C(S2)N(C(=O)N(C3=O)C)CC(C)C)C(=O)N4C[C@@H](CO4)O + Cc1nc(Nc2ncc(C(=O)Nc3c(C)cccc3Cl)s2)cc(N2CCN(CCO)CC2)n1 [Dasatinib] (partner 0.075 µM)
In short: (§1)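 For relative viability, nuclei counts in treated wells were divided by those in vehicle wells. Lung cancer cell lines had been pin-tool dosed in 1536-well plates the day after seeding and cultured for 5 days, then fixed and stained in one step (final 0.05% Triton X-100, 1% formaldehyde, 1 ug/ml Hoechst) and imaged at 4×. Doses were one drug alone or a fixed anchor-drug dose plus five library-drug doses (not always all listed) in √10 steps, and values are duplicate-plate medians.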

IDH-C35 + Trametinib = compound: Cc1ccccc1C(C(=O)NC1CCCCC1)N(C(=O)Cn1ccnc1C)c1cccc(F)c1 [IDH-C35] + CC(=O)Nc1cccc(-n2c(=O)n(C3CC3)c(=O)c3c(Nc4ccc(I)cc4F)n(C)c(=O)c(C)c32)c1 [Trametinib] (partner 0.02 µM)
In short: as §1

IDH-C35 + Foretinib = compound: Cc1ccccc1C(C(=O)NC1CCCCC1)N(C(=O)Cn1ccnc1C)c1cccc(F)c1 [IDH-C35] + COc1cc2c(Oc3ccc(NC(=O)C4(C(=O)Nc5ccc(F)cc5)CC4)cc3F)ccnc2cc1OCCCN1CCOCC1 [Foretinib] (partner 0.25 µM)
In short: as §1

IDH-C35 + Pictilisib = compound: Cc1ccccc1C(C(=O)NC1CCCCC1)N(C(=O)Cn1ccnc1C)c1cccc(F)c1 [IDH-C35] + CS(=O)(=O)N1CCN(Cc2cc3nc(-c4cccc5[nH]ncc45)nc(N4CCOCC4)c3s2)CC1 [Pictilisib] (partner 1 µM)
In short: as §1

Cell Line | relative viability ([1]; first compound 0.0025 µM) | relative viability ([1]; first compound 0.007906 µM) | relative viability ([1]; first compound 0.025 µM) | relative viability ([1]; first compound 0.07906 µM) | relative viability ([1]; first compound 0.25 µM) | relative viability (IDH-C35 + Trametinib; first compound 0.08 µM) | relative viability (IDH-C35 + Trametinib; first compound 0.253 µM) | relative viability (IDH-C35 + Trametinib; first compound 0.8 µM) | relative viability (IDH-C35 + Trametinib; first compound 2.53 µM) | relative viability (IDH-C35 + Trametinib; first compound 8 µM) | relative viability (IDH-C35 + Foretinib; first compound 0.08 µM) | relative viability (IDH-C35 + Foretinib; first compound 0.253 µM) | relative viability (IDH-C35 + Foretinib; first compound 0.8 µM) | relative viability (IDH-C35 + Foretinib; first compound 2.53 µM) | relative viability (IDH-C35 + Foretinib; first compound 8 µM) | relative viability (IDH-C35 + Pictilisib; first compound 0.08 µM) | relative viability (IDH-C35 + Pictilisib; first compound 0.253 µM) | relative viability (IDH-C35 + Pictilisib; first compound 0.8 µM) | relative viability (IDH-C35 + Pictilisib; first compound 2.53 µM) | relative viability (IDH-C35 + Pictilisib; first compound 8 µM)
LXF-289 | 0.248 | 0.241 | 0.226 | 0.142 | 0.247 | 0.701 | 0.628 | 0.643 | 0.676 | 0.668 | 0.969 | 0.94 | 1.01 | 1.01 | 0.969 | 0.813 | 0.767 | 0.689 | 0.85 | 0.725
H3255 | 0.42 | 0.319 | 0.283 | 0.343 | 0.347 | 0.699 | 0.692 | 0.536 | 0.548 | 0.59 | 1.06 | 0.838 | 0.886 | 1.04 | 0.854 | 0.454 | 0.546 | 0.474 | 0.503 | 0.424
201T | 0.579 | 0.624 | 0.6 | 0.59 | 0.551 | 0.727 | 0.7 | 0.718 | 0.701 | 0.676 | 1.12 | 1.06 | 1.08 | 1.01 | 1.05 | 0.651 | 0.731 | 0.634 | 0.661 | 0.676
NCI-H2126 | 0.695 | 0.591 | 0.659 | 0.53 | 0.585 | 0.568 | 0.563 | 0.564 | 0.519 | 0.537 | 1.14 | 1.22 | 1.15 | 1.14 | 1.06 | 0.494 | 0.508 | 0.48 | 0.507 | 0.472
HOP-62 | 0.672 | 0.852 | 0.74 | 0.466 | 0.559 | 0.395 | 0.353 | 0.424 | 0.33 | 0.384 | 1.11 | 1.01 | 0.999 | 1.09 | 1.13 | 0.509 | 0.744 | 0.537 |  | 0.581
CAL-12T | 0.49 | 0.475 | 0.465 | 0.317 | 0.343 | 0.389 | 0.434 | 0.371 | 0.36 | 0.354 | 1.13 | 1.22 | 1.1 | 1.01 | 1.13 | 0.347 | 0.429 | 0.559 | 0.339 | 0.608
NCI-H520 | 0.231 | 0.194 | 0.161 | 0.154 | 0.179 | 0.645 | 0.669 | 0.818 | 0.665 | 0.721 | 0.788 | 0.749 | 0.821 | 0.72 | 0.654 | 0.211 | 0.283 | 0.283 | 0.238 | 0.317
NCI-H1755 | 0.497 | 0.343 | 0.456 | 0.359 | 0.417 | 0.754 | 0.735 | 0.762 | 0.73 | 0.675 | 0.951 | 0.921 | 0.874 | 0.95 | 0.933 | 0.451 | 0.411 | 0.448 | 0.452 | 0.412
NCI-H2023 | 0.671 | 0.789 | 0.601 | 0.55 | 0.625 | 0.476 | 0.503 | 0.548 | 0.528 | 0.475 | 0.918 | 1 | 1.09 | 0.76 | 0.839 | 0.285 | 0.22 | 0.245 | 0.229 | 0.233
NCI-H2009 | 0.354 | 0.301 | 0.253 | 0.247 | 0.267 | 0.29 | 0.308 | 0.314 | 0.34 | 0.288 | 1.17 | 1.28 | 1.24 | 1.13 | 1.18 | 0.903 | 0.75 | 0.907 | 0.709 | 0.8

Reference: the supplement of paper PMC10307832
